# Measured values as given in ChEMBL document CHEMBL3044957, “Synthesis and biological evaluation of some N 4-aryl-substituted 5-fluoroisatin-3-thiosemicarbazones” (Med Chem Res, 2013).
# Activity calls are given as the source filed them. The rule behind the calls is not given here.
# Assays:
# [1] = target: Urease (Canavalia ensiformis) (UniProt P07374); assay: Inhibition of Canavalia ensiformis (jack bean) urease assessed as inhibition of ammonia production at 100 uM after 15 min by indophenol method
# Sequence of Urease (Canavalia ensiformis) (P07374 whole entry, looked up): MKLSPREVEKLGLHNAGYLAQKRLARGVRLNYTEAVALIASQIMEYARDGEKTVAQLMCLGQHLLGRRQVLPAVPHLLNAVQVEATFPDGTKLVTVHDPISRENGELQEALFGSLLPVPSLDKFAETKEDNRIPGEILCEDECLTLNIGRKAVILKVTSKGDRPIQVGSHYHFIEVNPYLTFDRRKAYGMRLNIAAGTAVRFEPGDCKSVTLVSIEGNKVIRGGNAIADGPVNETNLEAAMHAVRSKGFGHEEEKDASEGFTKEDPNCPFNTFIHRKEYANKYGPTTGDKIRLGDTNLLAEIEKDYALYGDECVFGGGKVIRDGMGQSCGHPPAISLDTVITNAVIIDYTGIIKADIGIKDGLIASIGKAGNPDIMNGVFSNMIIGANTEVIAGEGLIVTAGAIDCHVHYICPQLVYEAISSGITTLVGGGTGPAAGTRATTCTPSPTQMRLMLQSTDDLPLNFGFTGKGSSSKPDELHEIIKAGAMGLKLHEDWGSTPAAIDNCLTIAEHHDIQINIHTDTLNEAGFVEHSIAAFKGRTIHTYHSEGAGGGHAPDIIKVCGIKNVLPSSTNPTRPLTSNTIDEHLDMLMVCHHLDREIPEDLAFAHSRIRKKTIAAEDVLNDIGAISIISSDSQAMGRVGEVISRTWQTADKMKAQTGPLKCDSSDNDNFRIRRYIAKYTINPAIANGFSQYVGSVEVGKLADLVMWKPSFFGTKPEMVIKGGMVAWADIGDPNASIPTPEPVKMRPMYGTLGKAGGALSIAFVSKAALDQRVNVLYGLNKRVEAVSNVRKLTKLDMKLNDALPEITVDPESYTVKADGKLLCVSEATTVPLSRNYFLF
# Urease = Urease (Canavalia ensiformis, UniProt P07374); assay: Inhibition of Canavalia ensiformis (jack bean) urease assessed as inhibition of ammonia production after 15 min by indophenol method
# Sequence of Urease (P07374 whole entry): as the sequence (P07374 whole entry, looked up) above
# Aspergillus flavus = assay: Growth inhibition of Aspergillus flavus at 200 ug/ml after 7 days; type: functional; conditions: 168 h
# Lemna aequinoctialis [2] = assay: Phytotoxicity against Lemna aequinoctialis assessed as growth inhibition at 50 ug/ml after 7 days relative to control; type: functional; conditions: 168 h, read-out: GI
# Trichophyton longifusum = assay: Growth inhibition of Trichophyton longifusum at 200 ug/ml after 7 days; type: functional; conditions: 168 h
# Fusarium solani = assay: Growth inhibition of Fusarium solani at 200 ug/ml after 7 days; type: functional; conditions: 168 h
# Lemna aequinoctialis [3] = assay: Phytotoxicity against Lemna aequinoctialis assessed as growth inhibition at 5 ug/ml after 7 days relative to control; type: functional; conditions: 168 h, read-out: GI
# Candida albicans = assay: Growth inhibition of Candida albicans at 200 ug/ml after 7 days; type: functional; conditions: 168 h
# Nakaseomyces glabratus = assay: Growth inhibition of Candida glabrata at 200 ug/ml after 7 days; type: functional; conditions: 168 h
# Microsporum canis = assay: Growth inhibition of Arthroderma otae at 200 ug/ml after 7 days; type: functional; conditions: 168 h
# [4] = target: Urease (Canavalia ensiformis) (UniProt P07374); assay: Inhibition of Canavalia ensiformis (jack bean) urease assessed as inhibition of ammonia production at 200 uM after 15 min by indophenol method
# Lemna aequinoctialis [5] = assay: Phytotoxicity against Lemna aequinoctialis assessed as growth inhibition at 500 ug/ml after 7 days relative to control; type: functional; conditions: 168 h, read-out: GI
# [6] = Toxicity against Artemia salina (brine shrimp) assessed as mortality after 24 hr; type: organism-based; conditions: in vivo, read-out: LD50
# [7] = target: Urease (Canavalia ensiformis) (UniProt P07374); assay: Inhibition of Canavalia ensiformis (jack bean) urease assessed as inhibition of ammonia production at 500 uM after 15 min by indophenol method
# Lemna aequinoctialis [8] = assay: Phytotoxicity against Lemna aequinoctialis assessed as growth inhibition at 0.015 g/ml after 7 days relative to control; type: functional
# Homo sapiens = organism: Homo sapiens; assay: Inhibition of […] urease-mediated ammonia production at 100 uM after 15 min by indophenol method
SMILES,inhibition [1] [%],IC50 (Urease),inhibition at 200 µg/mL (Aspergillus flavus) [%],inhibition of growth at 50 µg/mL (Lemna aequinoctialis [2]) [%],inhibition at 200 µg/mL (Trichophyton longifusum) [%],inhibition at 200 µg/mL (Fusarium solani) [%],inhibition of growth at 5 µg/mL (Lemna aequinoctialis [3]) [%],inhibition at 200 µg/mL (Candida albicans) [%],inhibition at 200 µg/mL (Nakaseomyces glabratus) [%],inhibition at 200 µg/mL (Microsporum canis) [%],inhibition [4] [%],inhibition of growth at 500 µg/mL (Lemna aequinoctialis [5]) [%],LC50 at 24 h [6] [µM],IC50 (Urease; read-out: IC50) [µM],inhibition [7] [%],growth inhibition (GI) (Lemna aequinoctialis [8]) [%],inhibition (Homo sapiens)
O=C1Nc2ccccc2/C1=N/NC(=S)Nc1cc(F)cc(F)c1,38.8,–,–,–,–,–,–,–,–,–,–,–,–,–,–,–,–
O=C1Nc2ccc(F)cc2/C1=N/NC(=S)Nc1ccc(Br)cc1F,–,Not Active,0,25,0,10,10,0,0,20,21.9,30,> 49.1,–,–,–,–
O=C1Nc2ccc(F)cc2/C1=N/NC(=S)Nc1c(F)cccc1F,–,–,40,10,0,0,0,0,0,40,–,30,115,47.3,72.5,–,–
O=C1Nc2ccc(F)cc2/C1=N/NC(=S)Nc1ccccc1F,–,–,0,25,0,20,20,0,0,30,–,35,279,37.7,94.6,–,–
O=C1Nc2ccccc2/C1=N/NC(=S)Nc1cccc(C(F)(F)F)c1,78.2,–,–,–,–,–,–,–,–,–,–,–,–,20.6,–,–,–
O=C1Nc2ccc(F)cc2/C1=N/NC(=S)Nc1cc(F)cc(F)c1,–,–,0,10,0,0,0,0,0,40,–,15,107,151,80.2,–,–
O=C1Nc2ccccc2/C1=N/NC(=S)Nc1cccc(F)c1,57.3,–,–,–,–,–,–,–,–,–,–,–,–,50.6,–,–,–
O=C1Nc2ccccc2/C1=N/NC(=S)Nc1ccccc1C(F)(F)F,63.1,–,–,–,–,–,–,–,–,–,–,–,–,33.1,–,–,–
O=C1Nc2ccc(F)cc2/C1=N/NC(=S)Nc1ccc(F)cc1F,–,Not Active,40,20,0,15,10,0,0,35,–,30,> 57.1,–,22.1,–,–
O=C1Nc2ccccc2/C1=N/NC(=S)Nc1ccc(C(F)(F)F)cc1,44.6,–,–,–,–,–,–,–,–,–,–,–,–,50.6,–,–,–
O=C1Nc2ccc(F)cc2/C1=N/NC(=S)Nc1ccccc1,–,–,0,15,0,0,10,0,0,20,–,70,68.9,343,53,–,–
O=C1Nc2ccccc2/C1=N/NC(=S)Nc1ccccc1F,84.9,–,–,–,–,–,–,–,–,–,–,–,–,20.6,–,–,–
O=C1Nc2ccc(F)cc2/C1=N/NC(=S)Nc1cccc(F)c1,–,–,10,25,0,15,15,0,0,25,79.8,30,121,45.3,–,–,–
C[n+]1ccc(-c2cc[n+](C)cc2)cc1,–,–,–,–,–,–,–,–,–,–,–,–,–,–,–,100,–
O=C1Nc2ccc(F)cc2/C1=N/NC(=S)Nc1ccc(OC(F)(F)F)cc1,–,Not Active,10,20,0,0,10,0,0,30,–,35,> 50.3,–,18.9,–,–
O=C1Nc2ccc(F)cc2/C1=N/NC(=S)Nc1ccc(F)cc1,–,Not Active,0,25,0,10,10,0,0,15,–,35,97.9,–,45.6,–,–
O=C1Nc2ccccc2/C1=N/NC(=S)Nc1ccc(OC(F)(F)F)cc1,49.6,–,–,–,–,–,–,–,–,–,–,–,–,20.6,–,–,–
O=C1Nc2ccc(F)cc2/C1=N/NC(=S)Nc1cccc(C(F)(F)F)c1,–,–,30,10,0,25,0,0,0,30,–,30,> 52.4,59.9,92.6,–,–
O=C1Nc2ccccc2/C1=N/NC(=S)Nc1ccc(F)cc1F,71.9,–,–,–,–,–,–,–,–,–,–,–,–,47.6,–,–,–
NC(N)=S,–,–,–,–,–,–,–,–,–,–,–,–,–,–,99,–,–
O=C1Nc2ccccc2/C1=N/NC(=S)Nc1c(F)cccc1F,92,–,–,–,–,–,–,–,–,–,–,–,–,33.1,–,–,–
O=C1Nc2ccc(F)cc2/C1=N/NC(=S)Nc1ccc(C(F)(F)F)cc1,–,–,20,15,0,5,10,0,0,25,53.4,25,176,90.4,–,–,–
O=C1Nc2ccccc2/C1=N/NC(=S)Nc1ccccc1,–,–,–,25,–,–,15,–,–,–,–,40,> 338,–,–,–,inactive
O=C1Nc2ccc(F)cc2/C1=N/NC(=S)Nc1ccccc1C(F)(F)F,–,–,15,10,0,0,5,0,0,20,77.3,25,> 52.4,50.5,–,–,–
